# Test system: IL-4 induced proliferation of CTLL cell line
# Assay: CTLL Proliferation Assay (IL-4)
# Format: cell-based, murine
# Details: CTLL cells, exogenous IL-4 (mIL-4), titred peptide; FIGS. 1A-1D, 2
# Method: CTLL Proliferation Assay: The murine IL-2- and IL-4-responsive CTLL cell line was used to assess the ability of the gamma chain peptides to inhibit the binding of these cytokines to their respective receptors. The cell line proliferates in responses to exogenously added cytokine and inhibition of this proliferation by the peptides would be a result of blocking the cytokines from interacting with their receptors. Briefly, 5000 CTLL cells are added to the wells of a 96 well microtitre plate. Either 10 U/ml r-mIL-2 or 1 ng/ml r-mIL-4 are added to these wells along with titred amounts of the indicated peptides. Cultures are incubated at 37° C. for 24 hours and pulsed with ^3H-TdR for the final 6 hours to indicate amount of proliferation. Wells containing no peptide are deemed the positive response and well containing no peptide and no cytokine are deemed the background (bkg) proliferation. A percent response is calculated as follows: (CPM experimental-CPM bkg)/CPM positive response-CPM bkg). All data are expressed in this manner.
row,Sequence,effect on cell proliferation in response to exogenous IL-4
1,CLNLQNLC [gamma-5],inhibits cell proliferation
2,CNHEPRFLSC [gamma-4],inhibits cell proliferation

# Source: patent publication US6346602B1, “Peptide mimics of the cytokine receptor common γ chain and methods and compositions for making and using the same” (Thomas Jefferson University, priority 1997, dated 2002)
